# Laboratory results published in patent US9682126B2, “Postprandial gastrokinetic agent” (ZERIA PHARMACEUTICAL CO., LTD., priority 2013, dated 2017).
# Legend:
# Suncus murinus [1] = experiment: Postprandial motility by co-administration of ghrelin and motilin, ΔMI (Example 3); type: in vivo
# Procedure: Each of Suncus motilin (Scrum Inc., Tokyo, Japan) and human ghrelin (Asubio Pharma Co., Ltd., Hyogo, Japan) was dissolved in PBS containing 0.1% bovine serum albumin.
# Suncus murinus (male, outbred KAT strain, 7 to 39 weeks old, 56 to 91 g) was used for the experiment. The Each animal was bred in a plastic cage provided with an empty can as a nest box under the following conditions: temperature at 23±2° C., illumination between 8:00 and 20:00, and free intake of commercial trout feed (SP, Nippon Formula Feed Mfg Co., Ltd., Yokohama, Japan).
# After 3 hours of fasting, Suncus murinus was anesthetized by an intraperitoneal injection of pentobarbital sodium (50 mg/kg). Through a midline incision, the stomach was exposed outside the body, and a force transducer was fixed via suture in the circular muscle direction of the body of stomach. The wire extending from the force transducer was inserted through the abdominal wall, passed under the skin, and exposed at the back of the neck.
# An intravenous catheter was inserted in the right jugular, and extracorporeally fixed to the back. The catheter was filled with heparinized saline (100 units/mL) to prevent clotting.
# Each of the operated Suncus murinus was allowed to recover for several days.
# Drug administration and measurement of gastric motility were performed in the conscious, free-moving state without anesthesia.
# 2 g of feed was given to each Suncus murinus fastened (for 8 to 10 hours) for 10 minutes. After the intake of feed for 10 minutes, ghrelin (50, 1,000, or 3,000 ng/kg), motilin (300, 500, 1,000, or 3,000 ng/kg), or a mixed solution of ghrelin (15 or 50 ng/kg) and motilin (100, 200, or 300 ng/kg) was intravenously administered through a jugular vein catheter rapidly.
# Amplified analog signals were converted into digital signals by an analog-to-digital converter (ADC-20, Pico Technology Ltd, St Neots, UK), and the digital signals were recorded on a computer.
# Phase III contractions of MMC in conscious Suncus murinus were defined on the basis of those in dogs and humans (that is, clustered contractions with an amplitude of 8 g or more that lasts for 5 minutes or more).
# Gastric motility was quantitated using a motility index (ΔMI). A motility index (ΔMI) based on a drug was calculated using the following equation. ΔMI (%)=(A−C)/B×100 A: AUC of contractions for 10 minutes during which the drug was administered B: AUC of 10-minute spontaneous phase III contractions appeared before administration of the drug C: (AUC of contractions appeared for 5 minutes between 5 and 10 minutes after the intake of feed)×2 (2) Results (FIG. 9) A. Action of Ghrelin Alone
# Suncus murinus [2] = experiment: Gastric motility in postprandial period, sham-operated vs vagotomized (Example 2); type: in vivo
# Procedure: Each of Suncus motilin (Scrum Inc., Tokyo, Japan) and human ghrelin (Asubio Pharma Co., Ltd., Hyogo, Japan) were dissolved in PBS containing 0.1% bovine serum albumin. Suncus murinus (male, outbred KAT strain, 7 to 15 weeks old, 60 to 100 g) was used for the experiment. Each animal was bred in a plastic cage provided with an empty can as a nest box under the following conditions: temperature at 23±2° C., illumination between 8:00 and 20:00, and free intake of commercial trout feed (SP, Nippon Formula Feed Mfg Co., Ltd., Yokohama, Japan). After 3 hours of fasting, Suncus murinus was anesthetized by an intraperitoneal injection of pentobarbital sodium (50 mg/kg). Through a midline incision, the stomach was exposed outside the body, and a force transducer was fixed via suture in the circular muscle direction of the body of stomach. The wire extending from the force transducer was inserted through the abdominal wall, passed under the skin, and exposed at the back of the neck. Thereafter, truncal vagotomy was performed. A lower portion of the esophagus was exposed, both branches of the vagus nerve were isolated, and about 3 mm of the vagus nerve was excised above the hepatic branch and the celiac branch. For sham-operated Suncus murinus, the vagus nerve was exposed, but not excised. An intravenous catheter was inserted in the right jugular, and extracorporeally fixed to the back. The catheter was filled with heparinized saline (100 units/mL) to prevent clotting. From 2 days after the operation, the gastric motility was recorded. 1 g of feed was given to the Suncus murinus during phase I to observe postprandial contractions. Motilin was continuously injected at 50 ng/kg/min over 10 minutes 20 minutes after completion of intake of feed. Amplified analog signals were converted into digital signals by an analog-to-digital converter (ADC-20, Pico Technology Ltd, St Neots, UK), and the digital signals were recorded on a computer. […] Gastric motility was quantitated using a motility index (MI). A motility index (MI) based on a drug was calculated using the following equation. […]
# [3] = motilin 300 ng/kg iv after feed intake
# [4] = motilin 500 ng/kg iv after feed intake
# [5] = motilin 1,000 ng/kg iv after feed intake
# [6] = motilin 3,000 ng/kg iv after feed intake
smiles,measurement,setting,value
CC[C@H](C)[C@H](NC(=O)[C@@H]1CCCN1C(=O)[C@@H](NC(=O)[C@@H](N)Cc1ccccc1)C(C)C)C(=O)N[C@@H](Cc1ccccc1)C(=O)N[C@H](C(=O)N[C@@H](Cc1ccc(O)cc1)C(=O)NCC(=O)N[C@@H](CCC(=O)O)C(=O)N[C@@H](CC(C)C)C(=O)N[C@@H](CCC(N)=O)C(=O)N[C@@H](CCCNC(=N)N)C(=O)N[C@@H](CCSC)C(=O)N[C@@H](CCC(N)=O)C(=O)N[C@@H](CCC(=O)O)C(=O)N[C@@H](CCCCN)C(=O)N[C@@H](CCC(=O)O)C(=O)N[C@@H](CCCNC(=N)N)C(=O)N[C@@H](CC(N)=O)C(=O)N[C@@H](CCCCN)C(=O)NCC(=O)N[C@@H](CCC(N)=O)C(=O)O)[C@@H](C)O [motilin],Motility Index (ΔMI),Suncus murinus [1]; [3],About 4.9%
same,contractions of the body of the stomach,Suncus murinus [1]; [3],did not induce contractions of the body of the stomach
same,Motility Index (ΔMI),Suncus murinus [1]; [4],About 6.8%
same,contractions of the body of the stomach,Suncus murinus [1]; [4],did not induce contractions of the body of the stomach
same,Motility Index (ΔMI),Suncus murinus [1]; [5],About 49.5%
same,phase III-like contractions,Suncus murinus [1]; [5],induced phase III-like contractions
same,Motility Index (ΔMI),Suncus murinus [1]; [6],about 48.3%
same,phase III-like contractions,Suncus murinus [1]; [6],induced phase III-like contractions
same,"MI of postprandial motilin-induced contractions, vagotomized compared with sham-operated",Suncus murinus [2]; motilin 50 ng/kg/min after intake of feed,significantly higher
same,phase III-like contractions,"Suncus murinus [2]; sham-operated, after intake of feed, motilin 50 ng/kg/min, 10-minute administration",did not induce phase III-like contractions
same,phase III contractions,"Suncus murinus [2]; vagotomized, after intake of feed, motilin 50 ng/kg/min, 10-minute administration",induced strong phase III contractions
